Legend:
[1] = test system: kidney; conditions: Taki et al.; without systemic effects; cited from earlier work
[2] = test system: VX2 tumor; test: Functional CT perfusion before and after acetazolamide, tumor peripheral rim; type: in vivo, New Zealand White rabbits; conditions: peripheral rim of untreated tumor, day 28; acetazolamide 50 mg/kg IV; mean±SE
Excerpt: (§1) All animal procedures were approved by the Institutional Animal Care and Use Committee at Case Western Reserve University. The VX2 tumor, a xenograft hepatoma model used frequently in radiological studies, was donated by S, Nahum Goldberg MD, (Beth Israel Medical Center, Boston, Mass.). Tumor was initiated in livers of 5 male New Zealand White rabbits weighing 3 kg (Covance, Princeton, N.J.) using methods described previously. The tumor was first propagated in the thigh of a donor rabbit, where a suspension of tumor cells was injected intramuscularly into one thigh. The tumor was grown until the palpated size reached approximately 1 cm^3 and was harvested from anesthetized animals using sterile techniques. Pieces of the tumor (4 mm^3) were cut, placed in 10% DMSO in pure calf's serum, and stored in liquid nitrogen.
(§2) For implantation in the liver, frozen tumor was rapidly thawed and washed. Rabbits were anesthetized using a combination of xylazine (5 mg/kg), ketamine (50 mg/kg), acepromazine (2 mg/kg) and atropine (0.2 mg/kg). The abdomen was shaved and cleaned, and the liver was exposed. A piece of tumor was then inserted into the liver parenchyma and the incisions were closed. During recovery, all animals received Buprenex (0.5 mg/kg) for pain management and a subcutaneous injection of 25 ml of 0.9% saline. Additional Buprenex and saline were given as needed.
(§3) Liver perfusion maps were created 28 days after initiation of the tumor by tracking contrast enhancement on eight sequential CT images (acquired on the Mx8000 IDT, Philips Medical scanner) before and after IV injection of acetazolamide. During each CT exam, first an unenhanced baseline scan was carried out. […]
(§4) A CT perfusion software package available from the scanner manufacturer was used for all perfusion measurements. […] Arterial and portal perfusion were calculated by measuring the slope of the time-density curve before (arterial) and after (venous) peak splenic enhancement and normalizing by the vascular input. A mean percent change in perfusion before and after CAI injection was calculated. […]

[3] = test system: hepatic artery; test: Hepatic artery blood flow after intravenous acetazolamide; type: in vivo; conditions: 100 mg/kg intravenously; for Blood flow in the hepatic artery: before about 2.8 ml/min
Excerpt: The amount of vasoactive agent administered to the subject to cause a noticeable increase or decrease in blood flow to the tissue of interest will depend on the specific agent administered to the subject.

[4] = test system: suspected recurrent tumor in liver; test: MR of suspected recurrent liver tumor without and after Diamox; type: in vivo, Humans; conditions: post Diamox scan vs baseline scan; lesion confirmed benign inflammation
Excerpt: FIGS. 11(a-c) are MR of suspected recurrent tumor in liver without (A) and after (B) vasodilator (Diamox), and image-guided biopsy confirmation (C). In A and B, the solid line corresponds to the lesion and the “dashed” line corresponds to the normal liver.
Several preliminary studies have been carried out using a protocol approved by the Institutional Review Board (IRB) of University Hospitals of Cleveland (FIGS. 10-11). One patient undergoing routine biopsy was screened using a pre- and post-acetazolamide injection contrast-enhanced CT scans. Following the scans, a biopsy of the tissue was taken and sent for routine histological analysis. On the image data, standard region of interest (ROI) analysis was used to obtain signal intensity values (in Hounsfield units or HU) over 600 seconds in normal liver and the mass. […] Our general hypothesis is that normal vessels either in normal liver or benign lesions respond to the vasodilatation, so the decrease in conspicuity results from dilatation of both vessel sites. […] This was confirmed by histological diagnosis. A patient with a suspected recurrent tumor underwent a similar protocol as above. Again, on the baseline scan, the lesion enhances less than the normal liver. […] Instead of creating a “steal”, the flow increases flow in the lesion indicating it has normal vessels consistent with benign inflammation. […]

[5] = test system: small hepatoma; test: MRI perfusion study, baseline and AZ enhanced; type: in vivo
Excerpt: FIGS. 7(a-b) are plots illustrating MRI perfusion study with the solid line showing flow in a small hepatoma and the dotted line showing flow in the normal parenchyma. FIG. 7a illustrates a baseline perfusion study showing quicker and higher enhancement of tumor vs normal liver.

[6] = test system: normal liver; test: Functional CT perfusion before and after acetazolamide, normal liver; type: in vivo, New Zealand White rabbits; conditions: acetazolamide 50 mg/kg IV, mean±SE
Excerpt: as §1, §2, §3, §4

[7] = test system: inflammatory pseudotumor (benign liver lesion); test: Contrast-enhanced CT before and after acetazolamide in a biopsy patient; type: in vivo, Humans
Procedure: FIG. 10 is a plot illustrating CT perfusion analysis of a biopsy proven inflammatory pseudotumor before and after acetazolamide (AZ) administration (AZ 250 mg+50 mL Optiray 320).
Several preliminary studies have been carried out using a protocol approved by the Institutional Review Board (IRB) of University Hospitals of Cleveland (FIGS. 10-11). One patient undergoing routine biopsy was screened using a pre- and post-acetazolamide injection contrast-enhanced CT scans. Following the scans, a biopsy of the tissue was taken and sent for routine histological analysis. On the image data, standard region of interest (ROI) analysis was used to obtain signal intensity values (in Hounsfield units or HU) over 600 seconds in normal liver and the mass. […] Our general hypothesis is that normal vessels either in normal liver or benign lesions respond to the vasodilatation, so the decrease in conspicuity results from dilatation of both vessel sites. […] This was confirmed by histological diagnosis. A patient with a suspected recurrent tumor underwent a similar protocol as above. Again, on the baseline scan, the lesion enhances less than the normal liver. […] Instead of creating a “steal”, the flow increases flow in the lesion indicating it has normal vessels consistent with benign inflammation. Again, the results were confirmed with CT-guided biopsy.

[8] = test system: liver; conditions: Taki et al.; without systemic effects; cited from earlier work
[9] = test system: woodchuck hepatoma; test: FDG PET uptake curves with and without phenylephrine; type: in vivo; conditions: PET with FDG and phenylephrine vs baseline FDG alone
Excerpt: FIG. 8 is a plot illustrating FDG uptake curves in woodchuck hepatoma from two PET studies.

[10] = test system: normal prostate vessels; test: DCE MRI of the normal prostate with vasoactive drugs; type: in vivo, person
Procedure: A person with no history of prostate cancer and normal PSA, volunteered for multiple DCE MRI exams of the prostate to evaluate vasoactive modulation of the normal blood flow. Three separate examinations were performed several weeks apart. The studies were performed on a Siemens 1.5T Symphony scanner. The DCE MRI examination included, Siemens's tfiperf, (inversion fisp) sequence. TR=3000, TE=1.27, TI=400 flip angle=50. Gadolinium Veresetamide […], injection at 2 cc/sec for a total of 20 cc. Images were obtained every 3 seconds for a total period of 5 minutes and every minute thereafter for 15 minutes.
All three studies were performed with identical MRI sequences and parameters. The first study was performed without a vasoactive drug but the second and third study were repeated with administration of a vasoactive drug, silfenadil or pseudoephedrine. […] The third DCE MRI was performed identical to the second study with the oral administration of 25 mg of silfenadil one hour before the study, and the administration of 60 mg of pseudoephedrine 20 minutes preceding the gadolinium injection. The absorption rate of each drug is quite predictable according to the literature so the initial part of the study performed before the pseudoephedrine was vasodilated and the subsequent study had vasodilator combined with a vasoconstrictor.
Data analysis was performed using ANALYZE data management software (Analyze Direct, Inc., Lenexa, Kans., 66215, USA) and Excel (Microsoft, Seattle, Wash.).
Data graphs were normalized to the blood flow of the iliac artery. The data was acquired during the five minute period following intravenous gadolinium injection and thereby provides a semiquantitative assessment of blood flow characteristics, see below data discussion.

[11] = test system: lung cancer; test: FDG PET of lung cancer before and after oral pseudoephedrine; type: in vivo; conditions: after oral pseudoephedrine; baseline SUV 4.8
Excerpt: FIGS. 9(a-b) are baseline CT (A) and corresponding PET (B) images of lung cancer. FIGS. 9(c-d) are images illustrating Tumor after oral pseudoephedrine. The tumor has not changed size on CT but has increased PET signal. SUV increased from 4.8 to 8.8, presumably due to increased blood flow to tumor and capture of FDG.

[12] = between 21 seconds and 72 seconds, 25 mg oral one hour prior
[13] = gadolinium after sildenafil, FIG. 13 legend

Compound: CC(=O)Nc1nnc(S(N)(=O)=O)s1 [acetazolamide]
- Increase in blood flow to the kidney [1]: 33+/−11%
- Change in arterial perfusion [2]: −31±9%
- Change in total perfusion [2]: −30±7%
- Change in venous perfusion [2]: −20±12%
- Increase in the blood flow through the hepatic artery [3]: about 18%
- Blood flow in the hepatic artery ([3]; after about 10 minutes): about 3.1 ml/min
- Blood flow in the hepatic artery ([3]; after about 20 minutes): about 3.3 ml/min
- Enhancement of the lesion [4]: increases relative to the normal liver
- Enhancement of tumor vs normal liver [5]: decrease in enhancement of the tumor compared to the normal liver
- Change in arterial perfusion [6]: −3±33%
- Change in total perfusion [6]: 41±18%
- Change in venous perfusion [6]: 31±18%
- Conspicuity ([7]; after AZ injection (AZ 250 mg), 32 HU before, benign lesion): 15 HU
- Blood flow / signal intensity ([7]; post-acetazolamide contrast-enhanced CT, normal liver and mass): increases in the normal liver and in the mass
- Increase in blood flow to the liver [8]: 75+/−36%

Compound: CNC[C@H](O)c1cccc(O)c1 [phenylephrine]
- FDG uptake in lesion [9]: increased uptake

Compound: CN[C@@H](C)[C@@H](O)c1ccccc1 [pseudoephedrine]
- Reduction in the enhancement ([10]; after 14 minutes, pseudoephedrine 60 mg oral on top of silfenadil 25 mg oral): about 20%
- Intensity in the equilibration phase ([10]; at 14 minutes, pseudoephedrine 60 mg oral after Sildenafil 25 mg oral): definite decrease in intensity
- SUV (FDG PET signal of tumor) [11]: 8.8

Compound: CCCc1nn(C)c2c(=O)[nH]c(-c3cc(S(=O)(=O)N4CCN(C)CC4)ccc3OCC)nc12 [sildenafil]
- Enhancement of the prostate gland on MRI image ([10]; after sildenafil 50 mg and gadolinium, vs study without Viagra (FIG. 16)): greater enhancement of the gland
- Increase of lateral lobe enhancement vs baseline study [10, 12]: 78%
- Increase of medial lobe enhancement vs baseline study [10, 12]: 73%
- Enhancement greater than the enhanced undilated study, medial lobe [10, 13]: 78%
- Maximum enhancement greater than the enhanced, undilated study, lateral lobe [10, 13]: 73%
- Increase of enhancement curve vs baseline enhancement curve ([10]; throughout the entire scan period of 5 minutes (300 seconds), 25 mg oral one hour prior): more than 70%
